Measurements reported in patent US20210002725A1, “METHODS FOR THE DIAGNOSIS OF METABOLIC DISORDERS USING EPIMETABOLIC SHIFTERS, MULTIDIMENSIONAL INTRACELLULAR MOLECULES, OR ENVIRONMENTAL INFLUENCES” (Berg LLC, priority 2009, published 2021).
Where two headings read alike, the source gives them in different places.

Legend:
SCC cells = experiment: Real-time PCR Heat Shock Protein Array; type: cell-based; details: 100 μM Q10
From the text: The control cells were untreated cells.
Heat Shock Arrays were run for SCC cells and the data of regulated genes is summarized below in Table 13.

[1] = cited from earlier work
[2] = system: HepG2 (liver cancer) cells; experiment: Real-time PCR Diabetes Array; type: cell-based; details: for genes regulated in the Diabetes Arrays: 100 μM
Experimental: The treatment was initiated on 1×10^5 cells per well, following the procedure utilized in the PaCa2 cells (above, Examples 9-11). However, the total amount of RNA that was extracted from these samples was lower than expected. Reverse transcription is normally done using 1 μg of total RNA (determined by measurement at 260 nm).

HK-2 cells = experiment: Diabetes PCR array in cell model for diabetes; type: cell-based, human
Experimental: The HK-2 and HASMC cells are normally maintained in culture at 5.5 mM glucose, which is a concentration that corresponds to a range considered normal in human blood. However, in order to simulate a diabetic environment, both cell lines were subsequently maintained at 22 mM glucose, which corresponds to the range observed in human blood associated with chronic hyperglycemia. The cells were subsequently allowed to propagate over 3 passages so that the intracellular regulation processes were functionally adapted to mimic a diabetic state. The choice of cell line was based on the physiologic influence of diabetes on renal dysfunction and progression to end-stage renal disease (ESRD) in addition to the progressive pathophysiology of a compromised cardiovascular function.
The Diabetes PCR array (SABiosciences) offers a screen for 84 genes simultaneously.
A stringent analysis of the Real time PCR data of the HK-2 samples on the Diabetes Arrays (Cat #PAHS-023E, SABiosciences Frederick Md.) was made to exclude all results where gene regulation was not at least a two-fold regulation over HK-2 normal untreated cells with a p value of less than 0.05.

IDH1 = experiment: Western blot of Isocitrate Dehydrogenase-1 levels in cells treated with Coenzyme Q10; type: cell-based, human
Experimental: The whole cell pellets were resuspended one at a time in 1 mL of C7 buffer and transferred to labeled 15 mL tubes. The samples were then sonicated in the cold room on ice using 6 sonic pulses with the setting at #14. The samples were spun for a short time to 2500 g after sonication and the samples transferred to 2 ml tubes. The pH was verified of each sample (pH should be 9.0) using the foam remaining in the […] sample tubes.
Alkylation and reduction of samples was performed for each sample by adding 10 ul of 1M acrylamide, 25 ul of tributylphoshene and incubation for 90 mins with intermittent mixing. After incubation, 10 ul of 1M DTT was added and the tubes were spun at 20,000 g at 20 deg C. for 10 minutes and transferred the supernatant to labeled Amicon Ultra centrifugal filter units with a 10 k cut off (Millipore catalog #UFC 801024). The samples were spun for 15 minutes at 2500 g in 2 intervals. The conductivity was measured for Chaps alone as well as the samples using a conductivity meter. If the conductivity of samples is high, then 1 ml of chaps was added for buffer exchange and spun again at 2500 g until the volume was down to 250 ul. When the conductivity was 200 or less the samples were spun in 5 min intervals at 2500 g until the volume of the supernatant was between 150-100 ul. The sample supernatants were transferred to eppendorf tubes and Bradford assay was performed using BSA as standard.
The samples were processed as per standard protocols as described above and the amount of protein in each of the samples was determined by Bradford assay. Sample volumes equivalent to 10 ug of protein were prepared as shown below with Lamelli Loading dye (LDS) and MilliQ water were run on a 4-12% Bis-Tris Novex NuPAGE gel (Invitrogen, cat #NP0323Box)
The gels were run for 50 minutes using 1×MOPS buffer using a NOVEX Xcell Surelock system at 200 V. The gels were then transferred for 1 hour using a NOVEX Xcell Surelock wet transfer protocol at 30 V. The blots were stained with Simply Blue Safestain from Invitrogen (LC6065).
After transfer each of the blots was placed in between 2 Whatman Filter papers and dried for 15-20 minutes. After drying the blots were labeled with the date, the type of samples and either blot 1 or blot 2 using a HB pencil. The molecular weight markers were outlined with the pencil and with single lines for the blue and a doublet for the colored markers. The blots were activated with methanol for 5 seconds, washed with water for 5 minutes, and TBST for 15 minutes. The blots were blocked for 1 hour with 5% blocking reagent in TBS-T at room temperature and then washed 3 times with TBS-T (1×-15′; 2×5′ each). Blot 1 was probed with the primary antibody for IDH1 (Cell Signaling #3997) in TBST with 5% BSA (at 1:1000 dilutions) and blot 2 with the rabbit polyclonal antibody for ATP Citrate Lyase in 5% BSA (Cell Signaling #4332) at 1:1000 dilution by incubation overnight at 4 deg C. with shaking. After the overnight incubation with primary antibodies, the blots were washed 3 times with TBS-T (1×-15′; 2×5′ each) and probed with the secondary antibody (antirabbit; 1:10,000 dilution) for 1 hon the orbital tilting shaker at room temperature. After 1 h of incubation with secondary antibodies, the blots were washed 3 times with TBS-T (1×-15′; 2×5′ each) and then incubated with ECF reagent for 5 mins and then each blot scanned with 5100 Fuji Laser scanner at 25 uM resolution, 16 bit, green laser, at 400V and at 500 V.
The samples were processed and run on a 4-12% Bis-Tris Novex NuPAGE gel as described above. The gels were run, transferred and stained essentially as described above.
After transfer the blot was dried for 15-20 minutes, activated with methanol for 5 seconds, washed with water for 5 minutes, and TBST for 15 minutes. The blot was blocked for 1 hour with 5% blocking reagent in TBS-T at room temperature and then washed 3 times with TBS-T (1×-15′; 2×5′ each). […]

Structure (SMILES): COC1=C(OC)C(=O)C(C/C=C(\C)CC/C=C(\C)CC/C=C(\C)CC/C=C(\C)CC/C=C(\C)CC/C=C(\C)CC/C=C(\C)CC/C=C(\C)CC/C=C(\C)CCC=C(C)C)=C(C)C1=O [Q10, Coenzyme Q10]
- Regulation (mRNA) at 6 hours (SCC cells): Down regulated
- Regulation (mRNA) at 24 hours (SCC cells): Down regulated
- CoQ10 in the reduced form ([1]; blood (plasma), Bhagavan): ~96%
- CoQ10 in the reduced form ([1]; heart): about 61%
- molecule found in the reduced form (Q10H2) ([1]; human plasma, Ruiz-Jimenez 2007): 90%
- CoQ10 in the reduced form ([1]; intestine): ~95%
- CoQ10 in the reduced form ([1]; kidney): ~75%
- CoQ10 in the reduced form ([1]; liver): ~95%
- CoQ10 in the reduced form ([1]; muscle): ~65%
- PPARGC1A downregulation ([2]; 100 μM Q10, 16 hours): approximately 20 fold
- PRKAA1 downregulation ([2]; 100 μM Q10, 16 hours): ~6 fold
- SNAP25 downregulation ([2]; 100 μM Q10, 16 hours): ~5 fold
- PPARGC1A regulation ([2]; 100 μM Q10, 48 hours): normalized or were slightly upregulated
- PRKAA1 regulation ([2]; 100 μM Q10, 48 hours): normalized or were slightly upregulated
- SNAP25 downregulation ([2]; 100 μM Q10, 48 hours): approximately 2 fold
- genes regulated in the Diabetes Arrays ([2]; PPARGC1A gene): PPARGC1A
- genes regulated in the Diabetes Arrays ([2]; PRKAA1 gene): PRKAA1
- genes regulated in the Diabetes Arrays ([2]; SNAP25 gene): SNAP25
- CEACAM1 RNA transcript (HK-2 cells; HK2(H) cells at 22 mM glucose, particularly 100 μM Coenzyme Q10): highly upregulated
- insulin receptor (INSR) expression (HK-2 cells; diabetic HK-2 cells): increase in expression
- expression of IDH1 (IDH1; HASMC human aortic smooth muscle cells): did not demonstrate significant changes
- expression of IDH1 (IDH1; HDFa primary human derived fibroblasts): did not demonstrate significant changes
- IDH1 Average Normalized Intensity (IDH1; HDFa, 24 h, 100 μM): 600
- expression of IDH1 (IDH1; HepG2 cells): increased expression
- expression of IDH1 (IDH1; MCF-7 cells): increased expression
- IDH1 Normalized Intensity (IDH1; PACA2, 5 g, 48 h, 100 μM): 860
- expression of IDH1 (IDH1; PaCa-2 cells): increased expression
- expression of IDH1 (IDH1; SCC25 cell lines): moderate increase
- expression of IDH1 (IDH1; SKMEL28 cells): increased expression
- expression of IDH1 (IDH1; nFIB fibroblasts): did not demonstrate significant changes
